Measured values taken from publication PMC10924921, “Mi-2β promotes immune evasion in melanoma by activating EZH2 methylation” (Nature Communications, 2024).

Legend:
Assay in all cases: biochemical
Design in all cases: KINOMEscan active-site competition binding panel (468 kinase assays), per cent of control at 1000 nM
Settings in all cases: KINOMEscan per cent of control (binding competition); read-out: Percent Control
[1] = biological target: T1, ICK (Homo sapiens, UniProt Q9UPZ9)
T1 construct: gene CILK1
Excerpt: (§1) Figure S7 / Percent Control

[2] = biological target: PRKD1 (Homo sapiens, UniProt Q15139)
Excerpt: as §1

[3] = biological target: PHKG2 (Homo sapiens, UniProt P15735)
Excerpt: as §1

[4] = biological target: FLT3 (Homo sapiens, UniProt P36888)
Excerpt: as §1

[5] = biological target: KIT-autoinhibited (Homo sapiens, UniProt P10721)
Excerpt: as §1

[6] = biological target: CAMK2B (Homo sapiens, UniProt Q13554)
Excerpt: as §1

[7] = biological target: T2, PIP5K2B (Homo sapiens, UniProt P78356)
T2 construct: gene PIP4K2B
Excerpt: as §1

[8] = biological target: T3, p38-alpha (Homo sapiens, UniProt Q16539)
T3 construct: gene MAPK14
Excerpt: as §1

[9] = biological target: CDKL2 (Homo sapiens, UniProt Q92772)
Excerpt: as §1

[10] = biological target: T4, FAK (Homo sapiens, UniProt Q05397)
T4 construct: gene PTK2
Excerpt: as §1

[11] = biological target: T5, MST3 (Homo sapiens, UniProt Q9Y6E0)
T5 construct: gene STK24
Excerpt: as §1

[12] = biological target: T6, JAK2(JH1domain-catalytic) (Homo sapiens, UniProt O60674)
T6 construct: JH1domain-catalytic
Excerpt: as §1

[13] = biological target: T7, RSK4(Kin.Dom.2-C-terminal) (Homo sapiens, UniProt Q9UK32)
T7 construct: gene RPS6KA6; Kin.Dom.2-C-terminal
Excerpt: as §1

[14] = biological target: FRK (Homo sapiens, UniProt P42685)
Excerpt: as §1

[15] = biological target: T8, p38-gamma (Homo sapiens, UniProt P53778)
T8 construct: gene MAPK12
Excerpt: as §1

[16] = biological target: IRAK3 (Homo sapiens, UniProt Q9Y616)
Excerpt: as §1

[17] = biological target: T9, HPK1 (Homo sapiens, UniProt Q92918)
T9 construct: gene MAP4K1
Excerpt: as §1

[18] = biological target: MAPKAPK2 (Homo sapiens, UniProt P49137)
Excerpt: as §1

[19] = biological target: FLT3(K663Q) (Homo sapiens, UniProt P36888, K663Q)
Excerpt: as §1

[20] = biological target: T10, DLK (Homo sapiens, UniProt Q12852)
T10 construct: gene MAP3K12
Excerpt: as §1

[21] = biological target: CDK8 (Homo sapiens, UniProt P49336)
Excerpt: as §1

[22] = biological target: T11, ADCK4 (Homo sapiens, UniProt Q96D53)
T11 construct: gene COQ8B
Excerpt: as §1

[23] = biological target: PIK3CD (Homo sapiens, UniProt O00329)
Excerpt: as §1

[24] = biological target: ZAP70 (Homo sapiens, UniProt P43403)
Excerpt: as §1

T7 sequence (Q9UK32 whole entry): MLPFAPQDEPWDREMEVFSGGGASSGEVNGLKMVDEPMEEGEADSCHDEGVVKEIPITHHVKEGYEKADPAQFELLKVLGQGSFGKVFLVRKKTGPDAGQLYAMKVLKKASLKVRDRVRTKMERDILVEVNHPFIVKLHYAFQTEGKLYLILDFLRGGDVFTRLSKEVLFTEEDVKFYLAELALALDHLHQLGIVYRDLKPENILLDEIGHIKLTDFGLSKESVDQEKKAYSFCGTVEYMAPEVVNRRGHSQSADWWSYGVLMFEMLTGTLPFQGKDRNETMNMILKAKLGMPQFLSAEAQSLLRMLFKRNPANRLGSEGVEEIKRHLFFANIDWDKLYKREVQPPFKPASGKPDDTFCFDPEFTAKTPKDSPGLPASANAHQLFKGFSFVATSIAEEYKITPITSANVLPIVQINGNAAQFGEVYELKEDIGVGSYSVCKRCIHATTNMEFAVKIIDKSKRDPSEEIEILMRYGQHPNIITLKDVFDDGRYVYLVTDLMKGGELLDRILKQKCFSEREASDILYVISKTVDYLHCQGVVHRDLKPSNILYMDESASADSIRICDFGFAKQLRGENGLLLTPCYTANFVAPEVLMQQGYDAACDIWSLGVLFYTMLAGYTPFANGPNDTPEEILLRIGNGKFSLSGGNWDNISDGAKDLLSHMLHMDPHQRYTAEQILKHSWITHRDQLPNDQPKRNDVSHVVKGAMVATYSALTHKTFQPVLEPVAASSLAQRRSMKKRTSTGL
T4 sequence (Q05397 whole entry): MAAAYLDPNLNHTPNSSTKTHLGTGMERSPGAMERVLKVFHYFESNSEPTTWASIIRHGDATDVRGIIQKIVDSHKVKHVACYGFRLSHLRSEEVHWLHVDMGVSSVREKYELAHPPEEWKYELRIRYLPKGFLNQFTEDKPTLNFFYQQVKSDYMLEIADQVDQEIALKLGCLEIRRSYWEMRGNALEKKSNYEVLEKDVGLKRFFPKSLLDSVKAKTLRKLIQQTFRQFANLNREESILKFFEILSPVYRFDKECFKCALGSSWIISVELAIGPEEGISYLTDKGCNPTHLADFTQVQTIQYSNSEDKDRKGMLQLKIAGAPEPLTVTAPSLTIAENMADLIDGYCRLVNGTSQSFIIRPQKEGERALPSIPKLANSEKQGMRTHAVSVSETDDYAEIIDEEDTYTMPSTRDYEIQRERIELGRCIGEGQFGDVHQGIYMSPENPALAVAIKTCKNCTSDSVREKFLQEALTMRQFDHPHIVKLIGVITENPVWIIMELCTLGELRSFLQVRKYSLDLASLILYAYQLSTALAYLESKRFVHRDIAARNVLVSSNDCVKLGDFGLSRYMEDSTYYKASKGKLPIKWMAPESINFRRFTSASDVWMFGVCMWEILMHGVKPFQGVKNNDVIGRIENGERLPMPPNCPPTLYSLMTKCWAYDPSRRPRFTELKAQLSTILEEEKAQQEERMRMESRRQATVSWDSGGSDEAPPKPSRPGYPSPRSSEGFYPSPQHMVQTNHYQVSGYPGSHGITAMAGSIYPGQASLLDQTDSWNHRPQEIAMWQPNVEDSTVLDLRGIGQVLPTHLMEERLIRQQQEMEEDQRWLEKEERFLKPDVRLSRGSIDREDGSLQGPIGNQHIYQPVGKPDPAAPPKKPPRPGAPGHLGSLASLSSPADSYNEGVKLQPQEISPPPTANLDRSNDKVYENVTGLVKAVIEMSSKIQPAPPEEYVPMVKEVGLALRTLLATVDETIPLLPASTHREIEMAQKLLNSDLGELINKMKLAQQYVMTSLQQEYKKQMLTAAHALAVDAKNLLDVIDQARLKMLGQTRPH
Sequence of CAMK2B (Q13554 whole entry): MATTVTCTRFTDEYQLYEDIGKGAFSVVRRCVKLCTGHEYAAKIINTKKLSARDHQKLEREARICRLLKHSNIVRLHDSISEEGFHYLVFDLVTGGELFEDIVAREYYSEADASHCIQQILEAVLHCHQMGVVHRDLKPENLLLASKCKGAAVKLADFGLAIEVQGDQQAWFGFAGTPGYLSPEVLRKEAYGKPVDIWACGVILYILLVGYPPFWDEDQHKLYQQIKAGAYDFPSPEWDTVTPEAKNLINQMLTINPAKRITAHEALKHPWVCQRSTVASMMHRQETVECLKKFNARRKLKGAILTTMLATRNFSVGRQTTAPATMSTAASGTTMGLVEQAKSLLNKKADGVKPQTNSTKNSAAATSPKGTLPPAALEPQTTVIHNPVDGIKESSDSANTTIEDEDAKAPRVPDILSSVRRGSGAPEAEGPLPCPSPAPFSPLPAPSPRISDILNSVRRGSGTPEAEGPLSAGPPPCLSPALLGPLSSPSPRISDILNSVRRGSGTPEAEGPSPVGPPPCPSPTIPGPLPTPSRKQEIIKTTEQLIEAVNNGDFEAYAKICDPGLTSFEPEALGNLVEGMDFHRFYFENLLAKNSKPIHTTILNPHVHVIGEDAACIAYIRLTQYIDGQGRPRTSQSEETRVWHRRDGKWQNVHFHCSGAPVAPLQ
T2 sequence (P78356 whole entry): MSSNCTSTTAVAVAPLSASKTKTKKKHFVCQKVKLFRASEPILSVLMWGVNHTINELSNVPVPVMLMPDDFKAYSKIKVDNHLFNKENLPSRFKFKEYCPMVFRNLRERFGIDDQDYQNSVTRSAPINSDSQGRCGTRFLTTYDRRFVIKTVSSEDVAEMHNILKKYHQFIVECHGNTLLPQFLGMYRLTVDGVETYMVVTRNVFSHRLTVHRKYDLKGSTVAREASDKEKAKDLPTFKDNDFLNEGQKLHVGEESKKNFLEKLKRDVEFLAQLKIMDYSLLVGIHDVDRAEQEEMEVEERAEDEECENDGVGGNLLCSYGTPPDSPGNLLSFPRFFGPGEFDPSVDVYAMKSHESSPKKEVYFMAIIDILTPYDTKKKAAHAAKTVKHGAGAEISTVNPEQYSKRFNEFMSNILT
T5 sequence (Q9Y6E0 whole entry): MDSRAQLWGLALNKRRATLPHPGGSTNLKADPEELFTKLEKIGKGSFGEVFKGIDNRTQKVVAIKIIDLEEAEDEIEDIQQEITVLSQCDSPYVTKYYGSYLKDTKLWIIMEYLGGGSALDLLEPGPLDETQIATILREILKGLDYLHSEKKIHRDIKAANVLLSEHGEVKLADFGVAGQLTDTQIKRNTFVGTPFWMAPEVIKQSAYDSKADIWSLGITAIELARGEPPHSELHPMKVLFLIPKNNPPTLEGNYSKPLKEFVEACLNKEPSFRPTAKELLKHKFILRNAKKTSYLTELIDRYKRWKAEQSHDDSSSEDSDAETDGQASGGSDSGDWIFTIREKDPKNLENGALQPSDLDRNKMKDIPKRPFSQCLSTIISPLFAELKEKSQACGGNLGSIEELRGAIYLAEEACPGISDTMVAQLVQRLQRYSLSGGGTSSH
Sequence of FRK (P42685 whole entry): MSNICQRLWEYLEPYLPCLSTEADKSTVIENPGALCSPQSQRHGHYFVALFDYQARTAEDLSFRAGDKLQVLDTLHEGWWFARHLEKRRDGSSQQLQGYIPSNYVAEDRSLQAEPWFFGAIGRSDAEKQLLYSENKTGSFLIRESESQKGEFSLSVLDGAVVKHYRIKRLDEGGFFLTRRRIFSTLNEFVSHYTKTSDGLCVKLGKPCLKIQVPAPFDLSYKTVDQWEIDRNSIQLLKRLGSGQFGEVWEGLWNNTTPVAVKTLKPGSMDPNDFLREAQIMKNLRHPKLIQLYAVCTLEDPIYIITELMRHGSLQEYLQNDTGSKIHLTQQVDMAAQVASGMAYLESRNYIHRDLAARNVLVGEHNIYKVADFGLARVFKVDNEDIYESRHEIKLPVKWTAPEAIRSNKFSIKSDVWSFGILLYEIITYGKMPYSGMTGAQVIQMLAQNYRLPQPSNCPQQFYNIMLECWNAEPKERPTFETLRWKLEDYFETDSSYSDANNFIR
Sequence of CDKL2 (Q92772 whole entry): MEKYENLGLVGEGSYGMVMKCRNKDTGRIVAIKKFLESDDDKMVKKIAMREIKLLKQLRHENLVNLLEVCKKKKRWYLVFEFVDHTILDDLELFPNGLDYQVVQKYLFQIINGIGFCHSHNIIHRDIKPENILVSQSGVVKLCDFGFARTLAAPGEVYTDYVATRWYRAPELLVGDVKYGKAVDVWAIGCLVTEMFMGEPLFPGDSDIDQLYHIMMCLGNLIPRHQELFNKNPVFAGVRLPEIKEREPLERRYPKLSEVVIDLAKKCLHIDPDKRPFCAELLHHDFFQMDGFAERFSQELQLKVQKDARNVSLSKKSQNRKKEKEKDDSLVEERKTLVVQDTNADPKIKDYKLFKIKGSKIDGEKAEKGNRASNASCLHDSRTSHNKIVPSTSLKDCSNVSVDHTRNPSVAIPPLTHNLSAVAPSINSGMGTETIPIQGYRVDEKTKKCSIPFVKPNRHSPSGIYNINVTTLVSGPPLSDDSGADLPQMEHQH
Sequence of CDK8 (P49336 whole entry): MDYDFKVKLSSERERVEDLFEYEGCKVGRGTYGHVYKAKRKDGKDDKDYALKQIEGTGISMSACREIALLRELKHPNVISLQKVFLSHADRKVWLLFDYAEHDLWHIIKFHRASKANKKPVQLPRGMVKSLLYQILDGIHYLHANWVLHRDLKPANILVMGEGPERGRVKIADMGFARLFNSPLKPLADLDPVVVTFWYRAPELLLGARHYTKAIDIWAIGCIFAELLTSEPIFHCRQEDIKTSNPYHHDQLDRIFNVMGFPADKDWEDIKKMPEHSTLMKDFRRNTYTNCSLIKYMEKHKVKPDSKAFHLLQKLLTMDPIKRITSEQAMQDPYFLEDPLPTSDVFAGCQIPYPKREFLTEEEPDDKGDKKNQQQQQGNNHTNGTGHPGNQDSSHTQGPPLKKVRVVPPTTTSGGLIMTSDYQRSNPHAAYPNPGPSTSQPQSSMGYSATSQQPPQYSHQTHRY

**Q.** Which results are given for `Cn1c(=O)[nH]c2ccc(-c3cccc(C(=O)NC4CCn5ccnc5C4)c3)cc21` (stereo not drawn) [Z36-MP5]?
**A.** remaining binding at 1 µM [1]: 100%; remaining binding at 1 µM [2]: 100%; remaining binding at 1 µM [3]: 83%; remaining binding at 1 µM [4]: 95%; remaining binding at 1 µM [5]: 57%; remaining binding at 1 µM [6]: 91%; remaining binding at 1 µM [7]: 54%; remaining binding at 1 µM [8]: 63%; remaining binding at 1 µM [9]: 68%; remaining binding at 1 µM [10]: 88%; remaining binding at 1 µM [11]: 96%; remaining binding at 1 µM [12]: 74%; remaining binding at 1 µM [13]: 82%; remaining binding at 1 µM [14]: 100%; remaining binding at 1 µM [15]: 78%; remaining binding at 1 µM [16]: 99%; remaining binding at 1 µM [17]: 83%; remaining binding at 1 µM [18]: 55%; remaining binding at 1 µM [19]: 98%; remaining binding at 1 µM [20]: 62%; remaining binding at 1 µM [21]: 55%; remaining binding at 1 µM [22]: 64%; remaining binding at 1 µM [23]: 74%; remaining binding at 1 µM [24]: 91%
